Measurements: patent publication US12521439B2, “Methods and materials for modulating Nrf2 pathway” (The General Hospital Corporation, priority 2019, dated 2026)

Tests used:
[1] = system: cancer cells; test: Cancer cell death with OBT, JQ1, OBT-JQ1; format: cell-based; conditions: OBT combined with JQ1, FIG. 22
Description: Cell viability: Cells were plated in 96-well plates and treated with the corresponding compounds. Cell viability was measured by adding 25 μl/well of CellTiter-Glo (Promega) followed by 10 minutes incubation and transfer to a white 96-well plate. Bioluminescence was quantified using Synergy HTX multimode reader (Biotek).

[2] = system: CT2A mouse gliomas; test: Immunophenotyping of tumor-infiltrating immune cells (flow cytometry); format: in vivo, C57BL/6 mice
Description: The effect of OBT on glioma immunomodulation in vivo was next evaluated. 50,000 CT2A cells expressing Fluc were implanted in the striatum of immunocompetent C57BL/6 mice. Two weeks post-injection, mice were i.p. injected with OBT (7.5 mg/kg body weight/day) or PBS/DMSO control, over 4 days (n=6/group). Mice were sacrificed, brains removed, and tumor tissues dissected out and homogenized. […] OBT increased intratumoral CD8+ cytotoxic T cells with higher levels of both Ki-67 and granzyme B (markers for increased activation of effector cells, abrogation of suppressive immune cells) and decreased CD4+ regulatory T cells (Treg; CD25^+Foxp3^+), typically used by the tumour to escape the immune system, leading to an increase in the ratio of CD8+ T cells over Tregs (FIG. 25B-D). […] CTLA-4, PD-1, Lag-3 and Tim-3 levels (hallmark for exhausted and anergic T cells) were not changed on any of these cells (FIG. 25B; only showing PD-1).

[3] = target: Keap1 (Homo sapiens, UniProt Q14145); test: Keap1 immunoblotting / immunoprecipitation; format: cell-based; design: Keap1 protein levels in U87 cells treated with the indicated doses of OBT for 8 hours; endogenous in cells; host or cells: U87, MDA-MB-231 (endogenous); 293T and MDA-MB-231 also transfected with HA-Keap1
Description: Immunoblotting and Immunoprecipitation analysis: Antibodies against PDI, GAPDH, HA-tag, Ubiquitin, Keap1 and beta-actin (Cell Signaling) as well as secondary Horseradish peroxidase (HRP) conjugated antibodies: sheep anti-mouse IgG-HRP and donkey antirabbit IgG-HRP (Amersham Pharmacia Biotech) were used in this study. For protein expression analysis, cells were lysed in RIPA buffer (150 mM NaCl, 50 mM TRIS, pH 8.0, 1% NP-40, 0.5% deoxycholate, 0.1% SDS) supplemented with 1× protease inhibitors cocktail (Roche). Proteins were quantified using a Bradford protein determination assay (Bio-Rad) followed by electrophoresis in 10% NuPAGE Bis-Tris gels (Life Technologies) and transfer to nitrocellulose membranes (Bio-Rad). Membranes were incubated overnight with antibodies in 1-5% non-fat milk powder in PBS/0.5% TWEEN. Proteins were detected with SuperSignal West Pico Chemiluminescent Substrate (Pierce). For immunoprecipitation assays, cells were lysed in RIPA buffer supplemented with protease inhibitors and 2 mM N-ethylmaleimide. Cell lysates were pre-cleared with protein A agarose beads (Cell Signaling) and incubated with anti-HA antibody with gentle rocking overnight at 4° C. followed by incubation with protein A agarose beads and subsequent washing and elution steps. Electrophoresis, transfer and immunoblot analysis was performed as described above.

[4] = system: CT2A mouse glioma cells; test: Cytokine/chemokine array of glioma cell lysates; format: cell-based; conditions: OBT 4 μM, 24 hrs
Description: To evaluate the effect of OBT on glioma secretome, CT2A mouse glioma cells were treated with OBT (4 μM) for 24 hrs and analyzed cell lysates by cytokine/chemokine array. GBM cells responded to OBT, Nrf2 and ROS induction, by activating several cytokines known to be involved in immune cell chemotaxis and migration (CCL2, CXCL10, IL-6). […] These innate immunity-related factors may directly contribute to control tumor growth or shape the development of adaptive immunity. Thus, OBT can induce factors that induces activation of tumor immune response.

Keap1, sequence (Q14145 whole entry): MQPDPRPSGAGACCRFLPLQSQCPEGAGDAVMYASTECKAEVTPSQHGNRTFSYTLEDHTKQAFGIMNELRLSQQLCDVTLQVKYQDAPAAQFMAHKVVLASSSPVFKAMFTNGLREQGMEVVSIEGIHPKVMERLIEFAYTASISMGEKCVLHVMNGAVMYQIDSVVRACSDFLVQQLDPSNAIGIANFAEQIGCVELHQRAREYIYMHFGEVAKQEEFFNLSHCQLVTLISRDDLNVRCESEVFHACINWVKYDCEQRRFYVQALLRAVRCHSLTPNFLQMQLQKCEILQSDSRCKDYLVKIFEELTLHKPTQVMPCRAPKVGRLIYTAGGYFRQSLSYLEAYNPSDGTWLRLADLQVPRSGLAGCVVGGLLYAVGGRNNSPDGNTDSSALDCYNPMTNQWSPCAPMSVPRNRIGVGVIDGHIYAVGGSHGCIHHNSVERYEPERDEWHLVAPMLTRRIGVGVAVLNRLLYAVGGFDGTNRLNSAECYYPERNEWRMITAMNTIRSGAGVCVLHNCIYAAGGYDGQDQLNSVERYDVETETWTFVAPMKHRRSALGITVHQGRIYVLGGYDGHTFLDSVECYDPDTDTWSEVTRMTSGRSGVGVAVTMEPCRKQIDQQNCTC

## COC1=CC(=O)C(O)=C/C1=C/C=C/c1ccccc1 [OBT, (Z)-2-hydroxy-5-methoxy-4-((E)-3-phenylallylidene)cyclohexa-2,5-dien-1-one]
[1]
  interaction with JQ1: synergizes
[2]; 7.5 mg/kg/day i.p. over 4 days
  CD4+ regulatory T cells (Treg; CD25+Foxp3+): decreased
  Ki-67 and granzyme B in CD8+ T cells: higher levels
  dendritic cells: significant increase
  intratumoral CD8+ cytotoxic T cells: increased
  levels of CD4+ T cells: did not change
  number of microglia and macrophages: not changed
  ratio of CD8+ T cells over Tregs: increase
[2]; T cells
  CTLA-4, PD-1, Lag-3 and Tim-3 levels: not changed
[2]; on all three cell types
  CD47: significantly downregulated
[2]; on microglia, dendritic cells, macrophages
  PD-L1: did not have an effect
[3]; 293T, OBT 2 μM, 6 hours, IP anti-HA
  ubiquitination of Keap1: resulted in ubiquitination of Keap1
[3]; MDA-MB-231, OBT 3 μM, 6 hours
  OBT-mediated degradation of Keap1 with CUL3 downregulation or proteasome inhibitor: prevented
[3]; U87
  time at which Keap1 restored to physiological levels: 24 h
[3]; U87, following treatment with OBT
  earliest time of Keap1 decrease: 4 h
[3]; U87, 1 μM time course, indicated doses 8 hours
  Keap1 protein levels: time- and dose-dependent decrease
[4]
  cytokines involved in immune response modulation (CD40, CXCL2, CCL5, CXCL-10, IL-6): induced secretion
